Read-outs that look alike come from different tables or passages of the source.
Assay: Pharmacokinetic study of 153 (and metabolite endothal) in SD rats, iv and po; plasma, liver, brain
Format: in vivo
Conditions: for 153 plasma concentration (title) / Liver concentration: PO per title; for MRT last: read-out: MRT (0-t)
Experimental: The blood, liver and brain tissue samples were collected at predetermined times from rats. […] Compound were diluted shortly before use in 4% sodium bicarbonate for sterile injection (this is the standard pediatric solution of NaHCO3 with a pH of about 8.5).
Compound 153 was freshly prepared by diluting the drugs shortly before use in 4% sodium bicarbonate for sterile injection (this is the standard pediatric solution of NaHCO3 with a pH of about 8.5). The final concentrations of 153 solutions were 0.25 mg/mL. The 153 solutions were administered via iv or po route at dose volume of 5 ml/kg according to the latest body weight. Compound 157 was freshly prepared by diluting the drugs shortly before use in 4% sodium bicarbonate for sterile injection (this is the standard pediatric solution of NaHCO3 with a pH of about 8.5). The final concentrations of […] solutions were 0.3 mg/mL. The 157 solutions were administered via iv or po route at dose volume of 5 ml/kg according to the latest body weight.
Twelve (12) female SD rats per group were dosed by iv with 153 or 157. The rats were fasted overnight prior to dosing, with free access to water. Foods were withheld for 2 hours post-dose. Blood, liver and brain tissue samples in two animals each group were collected at each time point, within 10% of the scheduled time for each time point. Two extra animals were used for analytic method development.
Blood (>0.3 mL) were collected via aorta abdominalis in anaesthetic animals into tubes containing heparin at 15 min, 1, 2, 6, 10 and 24 hours after iv administration. Liver and brain tissues were collected immediately after animal death. The liver and brain tissues were excised and rinsed with cold saline to avoid blood residual. Upon collection, each sample was placed on ice and the blood samples were subsequently centrifuged (4° C., 11000 rpm, 5 min) to separate plasma. The obtained plasma, liver and brain tissue samples were stored at −70° C. until LC-MS/MS analysis.
Two (2) female SD rats per group were dosed by po with 153 or 157. The rats were fasted overnight prior to dosing, with free access to water. Foods were withheld for 2 hours post-dose. Blood samples (>0.3 mL) were collected via aorta abdominalis in anaesthetic animals into tubes containing heparin at 30 min, 1, 2, 6, 10 and 24 hours after po administration.
To each sample, 20 μL IS-D (for blank samples, 20 μL acetonitrile:water (1:1) was added) and 300 μl acetonitrile was added. The sample mixture was vortexed for approximately 3 min. After centrifugation at 10000 rpm for 5 min at 4° C., 100 μL of the upper layer was transferred to a new tube and added 200 μL 0.4% formic acid in water (pH 6.0). The mixture was vortexed for approximately 3 min before injected onto the LC/MS/MS system for analysis.
On the day of the assay, the frozen liver and brain samples were thawed unassisted at room temperature. An about 200 mg weighed sample of each thawed tissue was placed into a plastic tube with water (0.6 mL) to facilitate homogenization. Tissue processing was conducted using a homogenizer for approximately 1 min, 200 μl homogenate was transferred into a fresh Eppendorf tube. To each tube, 50 μL IS-D was added and mixed. Then 600 μl acetonitrile was added and the sample mixture was vortexed for approximately 3 min. After centrifugation at 10000 rpm for 5 min at 4° C., 400 μL of the upper layer was transferred to a new tube and evaporate the supernatant to dryness at 35° C. Reconstitute the residue with 200 μL of 0.4% formic acid in water (pH6.0), and vortex for 3 min, submit for LC-MS/MS analysis.
Frozen unknown plasma samples were completely thawed at room temperature and vortexed thoroughly. With a pipette, 50 μL of plasma was transferred into a 2.0 mL Eppendorf tube. 50 μL of 0.1N HCl and 800 μL ethyl acetate were added into each sample. The sample mixture was vortexed for approximately 3 min.

[1] = female, SD, rat, in vivo, iv, 1.25 mg/kg, 153 in plasma, IV 1.25 mg/kg, Mean
[2] = female, SD, rat, in vivo, iv, 1.25 mg/kg, 153 in plasma, IV 1.25 mg/kg, rat 1
[3] = female, SD, rat, in vivo, iv, 1.25 mg/kg, 153 in plasma, IV 1.25 mg/kg, rat 2

CCCOC(=O)C1C2CCC(O2)C1C(=O)N1CCN(C)CC1 (stereo not drawn) [Compound 153, 3-(4-Methylpiperazine-1-carbonyl)-7-oxa-bicyclo[2,2,1]heptane-2-carboxylic acid propyl ester]
F (153, PO 1.25 mg/kg vs IV 1.25 mg/kg, Mean): 55.41%
conversion to endothal in the plasma (statement) (153 administered to rats): converted to endothal
Tmax (153 in plasma, IV 1.25 mg/kg, Mean): 15 min
Tmax (153 in plasma, IV 1.25 mg/kg, rat 2): 15 min
Tmax (153 in plasma, PO 1.25 mg/kg, rat 2): 30 min
AUClast of 153 in brain (153 iv 1.25 mg/kg): 39.4 ng·h/g
AUClast of 153 in liver (153 iv 1.25 mg/kg): 500 ng·h/g
oral availability of 153 (statement) (153 po 1.25 mg/kg): orally available
AUC (Brain, 1.25 mg/kg IV, Mean): 39.4 ng·h/mL
AUC0-∞ (Brain, 1.25 mg/kg IV, Mean): 39.35 ng·h/mL
Tmax (Brain, 1.25 mg/kg IV, Mean): 15 min
AUC (Brain, 1.25 mg/kg IV, rat 1): 39.2 ng·h/mL
AUC0-∞ (Brain, 1.25 mg/kg IV, rat 1): 39.2 ng·h/mL
Tmax (Brain, 1.25 mg/kg IV, rat 1): 15 min
AUC (Brain, 1.25 mg/kg IV, rat 2): 39.5 ng·h/mL
AUC0-∞ (Brain, 1.25 mg/kg IV, rat 2): 39.5 ng·h/mL
Tmax (Brain, 1.25 mg/kg IV, rat 2): 15 min
AUC (Liver, 1.25 mg/kg IV, Mean): 500 ng·h/mL
AUC0-∞ (Liver, 1.25 mg/kg IV, Mean): 500 ng·h/mL
AUC (Liver, 1.25 mg/kg IV, rat 1): 547 ng·h/mL
AUC0-∞ (Liver, 1.25 mg/kg IV, rat 1): 547 ng·h/mL
Tmax (Liver, 1.25 mg/kg IV, rat 1): 15 min
AUC (Liver, 1.25 mg/kg IV, rat 2): 453 ng·h/mL
AUC0-∞ (Liver, 1.25 mg/kg IV, rat 2): 453 ng·h/mL
Tmax (Liver, 1.25 mg/kg IV, rat 2): 15 min
153 plasma concentration (title) / Liver concentration (1.25 mg/kg, 6 hr, Rat 1): BLQ
153 plasma concentration (title) / Liver concentration (1.25 mg/kg, 6 hr, Rat 2): BLQ
153 plasma concentration (title) / Liver concentration (1.25 mg/kg, 10 hr, Rat 1): BLQ
Tmax (female, SD, in vivo, 153 in plasma, IV 1.25 mg/kg, rat 1, read-out: Tmax): 15 min
Tmax (female, SD, in vivo, 153 in plasma, PO 1.25 mg/kg, rat 1, read-out: Tmax): 30 min
AUC(0-inf) [1]: 296 ng·h/mL
AUC (female, SD, rat, in vivo, iv, 1.25 mg/kg, 153 in plasma, IV 1.25 mg/kg, Mean, read-out: AUC): 295 ng·h/mL
Cmax (female, SD, rat, in vivo, iv, 1.25 mg/kg, 153 in plasma, IV 1.25 mg/kg, Mean, read-out: Cmax): 557 ng/mL
MRT last [1]: 39.4 min
half-life (female, SD, rat, in vivo, iv, 1.25 mg/kg, 153 in plasma, IV 1.25 mg/kg, Mean, read-out: T1/2 (converted)): 55.3 min
AUC(0-inf) [2]: 303 ng·h/mL
AUC (female, SD, rat, in vivo, iv, 1.25 mg/kg, 153 in plasma, IV 1.25 mg/kg, rat 1, read-out: AUC): 303 ng·h/mL
Cmax (female, SD, rat, in vivo, iv, 1.25 mg/kg, 153 in plasma, IV 1.25 mg/kg, rat 1, read-out: Cmax): 563 ng/mL
MRT last [2]: 40 min
half-life (female, SD, rat, in vivo, iv, 1.25 mg/kg, 153 in plasma, IV 1.25 mg/kg, rat 1, read-out: T1/2 (converted)): 54.4 min
AUC(0-inf) [3]: 288 ng·h/mL
AUC (female, SD, rat, in vivo, iv, 1.25 mg/kg, 153 in plasma, IV 1.25 mg/kg, rat 2, read-out: AUC): 288 ng·h/mL
Cmax (female, SD, rat, in vivo, iv, 1.25 mg/kg, 153 in plasma, IV 1.25 mg/kg, rat 2, read-out: Cmax): 550 ng/mL
MRT last [3]: 38.8 min
half-life (female, SD, rat, in vivo, iv, 1.25 mg/kg, 153 in plasma, IV 1.25 mg/kg, rat 2, read-out: T1/2 (converted)): 56 min
half-life (female, SD, rat, in vivo, iv, 1.25 mg/kg, 153 iv 1.25 mg/kg, read-out: T1/2 of 153 in brain (converted)): 35.8 min
half-life (female, SD, rat, in vivo, iv, 1.25 mg/kg, 153 iv 1.25 mg/kg, read-out: T1/2 of 153 in liver (converted)): 37.6 min
half-life (female, SD, rat, in vivo, iv, 1.25 mg/kg, 153 iv 1.25 mg/kg, read-out: T1/2 of 153 in plasma (converted)): 55.3 min
Cmax (female, SD, rat, in vivo, iv, 1.25 mg/kg, 153 iv 1.25 mg/kg, read-out: mean Cmax of 153 in brain): 42.7 ng/g
Cmax (female, SD, rat, in vivo, iv, 1.25 mg/kg, 153 iv 1.25 mg/kg, read-out: mean Cmax of 153 in liver): 762 ng/g
Cmax (female, SD, rat, in vivo, iv, 1.25 mg/kg, 153 iv 1.25 mg/kg, read-out: mean Cmax of 153 in plasma): 557 ng/mL
Cmax (female, SD, rat, in vivo, iv, 1.25 mg/kg, Liver, 1.25 mg/kg IV, rat 1, read-out: Cmax): 872 ng/g
MRT last (female, SD, rat, in vivo, iv, 1.25 mg/kg, Liver, 1.25 mg/kg IV, rat 1): 44.7 min
half-life (female, SD, rat, in vivo, iv, 1.25 mg/kg, Liver, 1.25 mg/kg IV, rat 1, read-out: T1/2 (converted)): 36.5 min
Cmax (female, SD, rat, in vivo, iv, 1.25 mg/kg, Liver, 1.25 mg/kg IV, rat 2, read-out: Cmax): 652 ng/g
MRT last (female, SD, rat, in vivo, iv, 1.25 mg/kg, Liver, 1.25 mg/kg IV, rat 2): 49.5 min
concentration at 0.25 h (female, SD, rat, in vivo, iv, 1.25 mg/kg, iv 1.25 mg/kg, Mean, read-out: 153 brain concentration): 42.7 ng/g
concentration at 0.25 h (female, SD, rat, in vivo, iv, 1.25 mg/kg, iv 1.25 mg/kg, Mean, read-out: 153 liver concentration): 762 ng/g
concentration at 0.25 h (female, SD, rat, in vivo, iv, 1.25 mg/kg, iv 1.25 mg/kg, Mean, read-out: 153 plasma concentration): 557 ng/mL
concentration at 0.25 h (female, SD, rat, in vivo, iv, 1.25 mg/kg, iv 1.25 mg/kg, Rat 1, read-out: 153 brain concentration): 45 ng/g
concentration at 0.25 h (female, SD, rat, in vivo, iv, 1.25 mg/kg, iv 1.25 mg/kg, Rat 1, read-out: 153 liver concentration): 872 ng/g
concentration at 0.25 h (female, SD, rat, in vivo, iv, 1.25 mg/kg, iv 1.25 mg/kg, Rat 1, read-out: 153 plasma concentration): 563 ng/mL
concentration at 0.25 h (female, SD, rat, in vivo, iv, 1.25 mg/kg, iv 1.25 mg/kg, Rat 2, read-out: 153 brain concentration): 40.3 ng/g
concentration at 0.25 h (female, SD, rat, in vivo, iv, 1.25 mg/kg, iv 1.25 mg/kg, Rat 2, read-out: 153 liver concentration): 652 ng/g
concentration at 0.25 h (female, SD, rat, in vivo, iv, 1.25 mg/kg, iv 1.25 mg/kg, Rat 2, read-out: 153 plasma concentration): 550 ng/mL
concentration at 1 h (female, SD, rat, in vivo, iv, 1.25 mg/kg, iv 1.25 mg/kg, 1 hr, Mean, read-out: 153 brain concentration): 14.1 ng/g

Reference: patent US20160264593A1 (priority 2013, published 2016)
